The record followed here is patent US10759843B2, “Method and pharmaceutical composition for use in the treatment of cancer” (priority 2012, dated 2020).

Non-standard residues stand in square brackets, D forms with d. Residues, ends and D or L forms follow the SMILES beside them.

Data set [1] relates to B cells isolated from CLL patients. The data set can be described thus: PCD (phosphatidylserine exposure, Annexin-V-FITC, flow cytometry) in B cells from CLL patients. The data set is classed as cell-based, human. The text has this: (§1) After authorized consent forms fresh blood samples will be collected from CLL patients diagnosed according to classical morphological and immunophenotypic criteria at Pitié-Salpêtrière Hospital (Service d'Hématologie Biologique). Normal B lymphocytes will be obtained from EFS (Etablisement Français du Sang). The Institutional Ethics Committee at Pitie-Salpetriere Hospital approved the present study. Mononuclear cells were purified from blood samples using a standard Ficoll-Hypaque gradient, and B cells were positively or negatively selected by magnetic beads coupled to anti-CD19 monoclonal antibody (positive selection) or to anti-CD16, CD3, and CD14 monoclonal antibodies (negative depletion) (Miltenyi Biotech). No changes were found in the cell death response of positively or negatively selected cells. Purified B-lymphocytes were cultured in complete medium (RPMI 1640 medium supplemented with 10% fetal calf serum, 2 mM L-glutamine, and 100 U/ml penicillin-streptomycin). Unless specified, reagents were from Sigma-Aldrich.
To induce cell death B-lymphocytes were cultured 1 h with the TSP-1 derived peptide 4N1K (300 μM; sequence KRFYVVMWKK, SEQ ID NO:1), the negative control peptide 4NGG (300 μM; sequence KRFYGGMWKK, SEQ ID NO:2), the newly developed peptide PKHB1 (150 μM; sequence (D)K-R-F-Y-[…]-M-W-(D)K) (formula I) or an anti-CD47 mAb (in soluble conditions or in immobilized precoated plates; 5 μg/ml; clone B6H12). Alternatively, B-cells were pre-treated for 30 min before the induction of cell death with the calcium chelator BAPTA-AM (20 μM), the caspase-inhibitor Z-VAD.fmk (50 μM).
(§2) We used Annexin V-FITC (BD Biosciences) for the assessment of phosphatidylserine (PS) exposure. Data analysis was carried out in a FACSCanto II (BD Biosciences) on the total cell population (10,000 cells). Data were analyzed using FlowJo software (TreeStar).

Another data set has as its system normal B-lymphocytes. The data set can be described thus: PCD (Annexin-V-FITC) in normal B-lymphocytes. The data set is classed as cell-based, human.
Text: as §1, with “Sigma-Aldrich. […]” for “Sigma-Aldrich.”
(§3) We used Annexin V-FITC (BD Biosciences) for the assessment of phosphatidylserine (PS) exposure. […] Data were analyzed using FlowJo software (TreeStar).

The subject of data set [2] is CD19^+/CD5^− (residual B-cells). The data set can be described thus: Cell death in residual B-cells of CLL patients (flow cytometry). The following applies: n=8 patients (FIG. 6C). The data set is classed as cell-based, human. The method, then: FIG. 6A-D. FIG. 6(A) B cells isolated from CLL patients were left untreated (control) or cultured 1 h in the presence of 4N1K or the 4N1K-derivative peptide PKHB-1 at the indicated concentration. The percentage of cells that expose phosphatidylserine (measured with Annexin-V-FITC) was recorded and expressed as a plot. Data are the means of eight independent experiments. FIG. 6(B) In a similar experiment B-lymphocytes from 14 different CLL patients, including individuals with unmutated IGHV, complex karyotype and dysfunctional TP53, were left untreated (control) or cultured 1 h in the presence of 4N1K (300 μM) or the 4N1K-derivative peptide PKHB-1 (150 μM). PCD was measured by Annexin-V-FITC labelling in a flow cytometer. FIG. 6(C) Cell death was determined as described in A in 4N1K or PKHB1-treated CD19^+/CD5^− (residual B-cells) and CD19^+/CD5^+ B-lymphocytes (CLL cells) identified by flow cytometry from each CLL patient. Data are presented as the mean±s.d. (n=8 patients). FIG. 6(D) Cell death was measured by Annexin V-positive staining in 4N1K or PKHB1-treated CLL cells pre-incubated or not with the intracellular calcium chelator BAPTA-AM. Data are presented as the mean±S.D. (n=10 patients).
as §3
(In general: A flow cytometer gives signals particle by particle.)

The next data set deals with MEC-1 cells. The data set can be described thus: Localized CLL xenograft model (MEC-1 cells subcutaneously in NSG mice). The format is in vivo. The following applies: 400 μg intraperitoneally three times per week. The method, then: 3×10^6 MEC-1 cells were injected subcutaneously into NOD scid gamma (NSG) mice (Charles River). When the tumor volume reached 0.1 cm^3, mice were injected intraperitoneally three times per week with 4NIK or PKHB1 (400 μg in 200 μl PBS). Tumor size was measured every 2-3 days with a calliper and tumor volume, calculated using the formula (length×width^2)/2, was expressed as mm^3. Alternatively, at the end of treatment mice were injected into the sinus retro-orbital with XenoLight RediJect 2-DG-750 Probe (Caliper) to visualize tumor cell glucose uptake, which reflects cell proliferation. Fluorescence was measured by In vivo imaging system FX Pro (Kodak) and pictures were analysed with the Carestream MI software.

The nature of data set [3]: Peptide stability in human serum, HPLC. The data set is classed as in vitro ADME. The method, then: FIG. 8: 4N1K and PKHB1 peptides stability were evaluated in human serum at 37° C. for 6 h. The relative concentrations of the remaining soluble peptides were analyzed by HPLC, by the integration of the absorbance at 220 nm as a function of retention time.
The test system of the next data set is cancer cell lines. The data set can be described thus: PCD induction in cancer cell lines (whole panel of Table 1). The data set is classed as cell-based. The following applies: cancer cell lines of Table 1, Annexin V labeling. The method, then: as §2
The test system of the next data set is primary cancer cells. The data set can be described thus: PCD induction in primary cancer cells (whole panel of Table 2). The data set is classed as cell-based. The following applies: primary cancer cells (Table 2).

Consider `CSCC[C@H](NC(=O)[C@@H](NC(=O)[C@@H](NC(=O)[C@H](Cc1ccc(O)cc1)NC(=O)[C@H](Cc1ccccc1)NC(=O)[C@H](CCCNC(=N)N)NC(=O)[C@@H](N)CCCCN)C(C)C)C(C)C)C(=O)N[C@@H](Cc1c[nH]c2ccccc12)C(=O)N[C@@H](CCCCN)C(=O)N[C@H](CCCCN)C(=O)O` [PKHB1, (D)K-R-F-Y-V-V-M-W-K-(D)] (H-KRFYVVMWK[dK]-OH), for which the “efficiency compared with 4N1K” value in data set [1] (B cells isolated from CLL patients, 1 h, indicated concentrations (FIG. 6A)) is “better efficiency than the 4N1K peptide”. Besides, in data set [1] (BAPTA-AM 20 μM before PCD induction (FIG. 5, FIG. 6D)), the “effect of pre-treatment with calcium chelator BAPTA-AM on peptide-mediated PCD” value is recorded as “significantly decreased”. Further, the “cell death of CD19^+/CD5^+ tumor cells” value in data set [1] (CD19^+/CD5^+ CLL cells, n=8 patients (FIG. 6C)) is on record as “significantly killed”. Also, in the data set with normal B-lymphocytes, the “cytotoxicity in normal B-lymphocytes” value is recorded as “not in normal B-lymphocytes”. For the same compound, the “cell death of residual CD19^+/CD5^− B-lymphocytes” value in data set [2] was “resistant”. The “tumor growth compared to control mice” value with MEC-1 cells (NSG mice with MEC-1 tumors (FIG. 7)) is listed as “reduction”. Moreover, the “tumor glucose uptake (2-DG) compared to control mice” value in the data set with MEC-1 cells (NSG mice with MEC-1 tumors (FIG. 7C)) is “reduction”. In addition, the “time over which stable in human serum” value in data set [3] (37° C. (FIG. 8)) is not below 6 h. In addition, the “degradation in human serum” value in data set [3] (37° C., 6 h, HPLC 220 nm (FIG. 8)) is listed as “not degradated”.
Consider “KRFYGGMWKK [4NGG, negative soluble control peptide, 4N1K mutated in two amino acids, reference compound]”, for which the “cell death / caspase-independent PCD induction (in words)” value with cancer cell lines was “inefficient”. Further, the “caspase-independent PCD induction (in words)” value in the data set on primary cancer cells is “inefficient”. Further, the “PCD induction in CLL primary cells (in words)” value in data set [1] (soluble peptide or mAb (FIG. 1)) is “unable to induce PCD”.
